Data from US4011390A, “Semi-synthetic aminocyclitol aminoglycoside antibiotics and methods for the preparation thereof” (Schering-Plough Corporation, priority 1974, dated 1977).
In brackets after ≈: the same amount, converted by molar mass. Where two headings read alike, the source gives them in different places.

Tests used:
Streptococcus pyogenes [1] = experiment: MIC in Mueller-Hinton Broth pH 7.2; type: cell-based
From the text: (§1) In vitro Activity of the Mutamicins and Sisomicin
(§2) MIC's in Mueller-Hinton Broth pH 7.2

Escherichia coli [2] = experiment: MIC in Mueller-Hinton Broth pH 7.2; type: cell-based
From the text: as §1, §2

Proteus rettgeri = experiment: MIC in Mueller-Hinton Broth pH 7.2; type: cell-based; conditions: Providencia rettgeri, pH 7.2
From the text: as §1, §2

Pseudomonas aeruginosa [3] = experiment: MIC in Mueller-Hinton Broth pH 7.2; type: cell-based
From the text: as §1, §2

Serratia = experiment: MIC in Mueller-Hinton Broth pH 7.2; type: cell-based; conditions: pH 7.2
From the text: as §1, §2

Staphylococcus aureus [4] = experiment: MIC in Mueller-Hinton Broth pH 7.2; type: cell-based
From the text: as §1, §2

Salmonella typhimurium = experiment: MIC in Mueller-Hinton Broth pH 7.2; type: cell-based; conditions: Salmonella enterica, strain B
From the text: as §1, §2

Candida albicans = experiment: MIC in Mueller-Hinton Broth pH 7.2; type: cell-based; conditions: pH 7.2
From the text: as §1, §2

Trichophyton rubrum = experiment: MIC in Mueller-Hinton Broth pH 7.2; type: cell-based; conditions: pH 7.2
From the text: as §1, §2

Klebsiella pneumoniae [5] = experiment: MIC in Mueller-Hinton Broth pH 7.2; type: cell-based
From the text: as §1, §2

Providence = experiment: MIC in Mueller-Hinton Broth pH 7.2; type: cell-based; conditions: strain (Genta. R.) 164
From the text: as §1, §2

Aspergillus niger = experiment: MIC in Mueller-Hinton Broth pH 7.2; type: cell-based; conditions: pH 7.2
From the text: as §1, §2

Bacillus subtilis [6] = experiment: MIC in Mueller-Hinton Broth pH 7.2; type: cell-based; conditions: ATCC6633, strain ATCC 6633
From the text: as §1, §2

Acute Toxicity = conditions: mouse, in vivo
Staphylococcus = experiment: Protection Tests in Mice; type: in vivo; conditions: Staphylococcus Gray, read-out: PD50
From the text: (§3) In vivo Activity of the Mutamicin 1 and Sisomicin
(§4) Protection Tests in Mice

Escherichia coli [7] = experiment: Protection Tests in Mice; type: in vivo
From the text: as §3, §4

Pseudomonas aeruginosa [8] = experiment: Protection Tests in Mice; type: in vivo
From the text: as §3, §4

Providence 164 = experiment: Disc test, Bauer-Kirby technique with 10 Mcg. discs; type: cell-based; conditions: strain 164
From the text: (§5) Disc Test Results (Replicate Tests) With The Mutamicins, Sisomicin and
(§6) Bauer-Kirby Technique^1 With 10 Mcg. Discs
(§7) ^1 Bauer, Kirby, Sherris and Turck, American Journal of Clinical

Streptococcus pyogenes [9] = experiment: as above; type: cell-based; conditions: Streptococcus pyogenes
From the text: as §5, §6, §7

Escherichia coli [10] = experiment: as above; type: cell-based; conditions: Escherichia coli, read-out: Zone Size
From the text: as §5, §6, §7

Pseudomonas aeruginosa [11] = experiment: as above; type: cell-based; conditions: Pseudomonas aeruginosa
From the text: as §5, §6, §7

Staphylococcus aureus [12] = experiment: as above; type: cell-based; conditions: Staphylococcus aureus
From the text: as §5, §6, §7

Klebsiella pneumoniae [13] = experiment: as above; type: cell-based; conditions: Klebsiella pneumoniae
From the text: as §5, §6, §7

Bacillus subtilis [14] = experiment: as above; type: cell-based; conditions: Bacillus subtilis, ATCC6633, strain ATCC 6633
From the text: as §5, §6, §7

Compound CN[C@@H]1[C@@H](O)[C@@H](O[C@@H]2[C@@H](O)[C@H](O[C@H]3OC(CN)=CC[C@H]3N)[C@@H](N)C[C@H]2N)OC[C@]1(C)O [Sisomicin, O-2,6-Diamino-2,3,4,6-tetradeoxy-α-D-glycero-hex-4-eno-pryanosyl(1→4)-O-[3-deoxy-4-C-methyl-3-(methylamino)-B-L-arabinopyranosyl(1→6)] -2-deoxy-D-streptamine, reference compound] has an MIC (Streptococcus pyogenes [1]; pH 7.2, strain 27) of 3 mg/L (≈ 6.7 µM), an MIC (Streptococcus pyogenes [1]; pH 7.2, strain Alvarez) of 3 mg/L (≈ 6.7 µM) and an MIC (Streptococcus pyogenes [1]; pH 7.2, strain C) of 3 mg/L (≈ 6.7 µM). For the same compound, the MIC (Streptococcus pyogenes [1]; pH 7.2, strain Cruz) was 3 mg/L (≈ 6.7 µM), the MIC (Streptococcus pyogenes [1]; pH 7.2, strain Karipeds) was 0.8 mg/L (≈ 1.79 µM) and the MIC (Streptococcus pyogenes [1]; pH 7.2, strain Labay) was 3 mg/L (≈ 6.7 µM). It also gave an MIC (Escherichia coli [2]; ATCC10536, pH 7.2, strain ATCC 10536) of 0.08 mg/L (≈ 0.179 µM), an MIC (Escherichia coli [2]; pH 7.2, strain Baker 2) of 0.3 mg/L (≈ 0.67 µM) and an MIC (Escherichia coli [2]; pH 7.2, strain Fl4-Bk) of 0.3 mg/L (≈ 0.67 µM). The MIC (Escherichia coli [2]; pH 7.2, strain Genta. adenyl LA290-R55) was 17.5 mg/L (≈ 39.1 µM), the MIC (Escherichia coli [2]; pH 7.2, strain Genta. adenyl W677/R55) was 7.5 mg/L (≈ 16.8 µM) and the MIC (Escherichia coli [2]; pH 7.2, strain Kana. phosphor. 589) was 0.8 mg/L (≈ 1.79 µM). The MIC (Escherichia coli [2]; pH 7.2, strain Kana. phosphor. C-13) was 0.3 mg/L (≈ 0.67 µM), the MIC (Escherichia coli [2]; pH 7.2, strain Tobra. R 4195) was 0.8 mg/L (≈ 1.79 µM) and the MIC (Proteus rettgeri) was 0.8 mg/L (≈ 1.79 µM). For the same compound, the MIC (Pseudomonas aeruginosa [3]; pH 7.2) was over 25 mg/L, the MIC (Pseudomonas aeruginosa [3]; pH 7.2, strain 762, Mueller-Hinton Broth pH 7.2, read-out: MIC) was 0.3 mg/L (≈ 0.67 µM) and the MIC (Pseudomonas aeruginosa [3]; pH 7.2, strain 1262, Mueller-Hinton Broth pH 7.2, read-out: MIC) was 0.8 mg/L (≈ 1.79 µM). The MIC (Pseudomonas aeruginosa [3]; pH 7.2, strain 1395, Mueller-Hinton Broth pH 7.2, read-out: MIC) was 0.08 mg/L (≈ 0.179 µM), the MIC (Pseudomonas aeruginosa [3]; pH 7.2, strain D-2, Mueller-Hinton Broth pH 7.2, read-out: MIC) was 0.08 mg/L (≈ 0.179 µM) and the MIC (Pseudomonas aeruginosa [3]; pH 7.2, strain Genta. acetyl Capetown 18, Mueller-Hinton Broth pH 7.2, read-out: MIC) was 7.5 mg/L (≈ 16.8 µM). The MIC (Pseudomonas aeruginosa [3]; pH 7.2, strain Genta. acetyl Stone 130, Mueller-Hinton Broth pH 7.2, read-out: MIC) was 17.5 mg/L (≈ 39.1 µM), the MIC (Pseudomonas aeruginosa [3]; pH 7.2, strain NRRL B3223, Mueller-Hinton Broth pH 7.2, read-out: MIC) was 0.08 mg/L (≈ 0.179 µM) and the MIC (Pseudomonas aeruginosa [3]; pH 7.2, strain Stone 20, Mueller-Hinton Broth pH 7.2, read-out: MIC) was 0.3 mg/L (≈ 0.67 µM). For the same compound, the MIC (Pseudomonas aeruginosa [3]; pH 7.2, strain Stone 39, Mueller-Hinton Broth pH 7.2, read-out: MIC) was 0.8 mg/L (≈ 1.79 µM), the MIC (Pseudomonas aeruginosa [3]; pH 7.2, strain Stone 138, Mueller-Hinton Broth pH 7.2, read-out: MIC) was 7.5 mg/L (≈ 16.8 µM) and the MIC (Serratia) was 0.8 mg/L (≈ 1.79 µM). The MIC (Staphylococcus aureus [4]; ATCC6538P, pH 7.2, strain ATCC 6538P) was 0.08 mg/L (≈ 0.179 µM), the MIC (Staphylococcus aureus [4]; pH 7.2, strain 59N) was 0.03 mg/L (≈ 0.067 µM) and the MIC (Staphylococcus aureus [4]; pH 7.2, strain 1118) was 3 mg/L (≈ 6.7 µM). It also gave an MIC (Staphylococcus aureus [4]; pH 7.2, strain Grey) of 3 mg/L (≈ 6.7 µM), an MIC (Staphylococcus aureus [4]; pH 7.2, strain Wood) of 0.03 mg/L (≈ 0.067 µM) and an MIC (Staphylococcus aureus [4]; pH 7.2, strain Ziegler) of 0.08 mg/L (≈ 0.179 µM). It also gave an MIC (Salmonella typhimurium) of 0.3 mg/L (≈ 0.67 µM), an MIC (Candida albicans) of over 25 mg/L and an MIC (Trichophyton rubrum) of over 25 mg/L. The MIC (Klebsiella pneumoniae [5]; pH 7.2, strain Ad 18) was 0.08 mg/L (≈ 0.179 µM), the MIC (Klebsiella pneumoniae [5]; pH 7.2, strain Genta. adenyl 121) was 0.08 mg/L (≈ 0.179 µM) and the MIC (Klebsiella pneumoniae [5]; pH 7.2, strain Genta. adenyl 3020) was 7.5 mg/L (≈ 16.8 µM). It also gave an MIC (Klebsiella pneumoniae [5]; pH 7.2, strain Genta. adenyl 3694) of 7.5 mg/L (≈ 16.8 µM), an MIC (Klebsiella pneumoniae [5]; pH 7.2, strain Kana. phos. Ad 22) of 0.3 mg/L (≈ 0.67 µM) and an MIC (Providence) of over 25 mg/L. For the same compound, the MIC (Aspergillus niger) was over 25 mg/L, the MIC (Bacillus subtilis [6]) was 0.03 mg/L (≈ 0.067 µM) and the LD50 (Acute Toxicity; ip) was 190 mg/kg. For the same compound, the LD50 (Acute Toxicity; iv) was 34 mg/kg, the ED50 (Staphylococcus) was 1.8 mg/kg and the ED50 (Escherichia coli [7]; Escherichia coli 6922, read-out: PD50) was 2 mg/kg. The ED50 (Escherichia coli [7]; Escherichia coli Sc., read-out: PD50) was 1.7 mg/kg, the ED50 (Pseudomonas aeruginosa [8]; Pseudomonas aeruginosa 2552, read-out: PD50) was 2.8 mg/kg and the ED50 (Pseudomonas aeruginosa [8]; Pseudomonas aeruginosa 2557, read-out: PD50) was 2.7 mg/kg. For the same compound, the ED50 (Pseudomonas aeruginosa [8]; sc, Pseudomonas aeruginosa Sc., read-out: PD50) was 1.1 mg/kg, the zone of inhibition at 10 µg/disc (Providence 164) was 13 mm and the zone of inhibition at 10 µg/disc (Streptococcus pyogenes [9]; strain B-Cruz) was 15 mm. For the same compound, the zone of inhibition at 10 µg/disc (Streptococcus pyogenes [9]; strain C) was 13 mm, the zone of inhibition at 10 µg/disc (Escherichia coli [10]; ATCC10536, strain ATCC 10536, 10 Mcg. discs) was 28 mm and the zone of inhibition at 10 µg/disc (Escherichia coli [10]) was 15 mm. It also gave a zone of inhibition at 10 µg/disc (Escherichia coli [10]; strain 589, 10 Mcg. discs) of 24 mm, a zone of inhibition at 10 µg/disc (Escherichia coli [10]; strain JR88, 10 Mcg. discs) of 11 mm and a zone of inhibition at 10 µg/disc (Escherichia coli [10]; strain JR90, 10 Mcg. discs) of 0 mm. It also gave a zone of inhibition at 10 µg/disc (Escherichia coli [10]; strain LA290/R55, 10 Mcg. discs) of 13 mm, a zone of inhibition at 10 µg/disc (Escherichia coli [10]; strain Swidinsky 4195, 10 Mcg. discs) of 24 mm and a zone of inhibition at 10 µg/disc (Pseudomonas aeruginosa [11]; strain Capetown 18) of 14 mm. For the same compound, the zone of inhibition at 10 µg/disc (Pseudomonas aeruginosa [11]; strain D-2) was 24 mm, the zone of inhibition at 10 µg/disc (Pseudomonas aeruginosa [11]; strain St. Michael 413) was 26 mm and the zone of inhibition at 10 µg/disc (Pseudomonas aeruginosa [11]; strain St. Michael 762) was 25 mm. The zone of inhibition at 10 µg/disc (Pseudomonas aeruginosa [11]; strain St. Michael 1262) was 26 mm, the zone of inhibition at 10 µg/disc (Pseudomonas aeruginosa [11]; strain St. Michael 1395) was 26 mm and the zone of inhibition at 10 µg/disc (Pseudomonas aeruginosa [11]; strain Stone 20) was 27 mm. For the same compound, the zone of inhibition at 10 µg/disc (Pseudomonas aeruginosa [11]; strain Stone 39) was 25 mm, the zone of inhibition at 10 µg/disc (Pseudomonas aeruginosa [11]; strain Stone 130) was 14 mm and the zone of inhibition at 10 µg/disc (Pseudomonas aeruginosa [11]; strain Stone 138) was 10 mm. It also gave a zone of inhibition at 10 µg/disc (Staphylococcus aureus [12]; ATCC6538P, strain ATCC 6538P) of 25 mm, a zone of inhibition at 10 µg/disc (Staphylococcus aureus [12]; strain 59N) of 28 mm and a zone of inhibition at 10 µg/disc (Staphylococcus aureus [12]; strain Wood) of 29 mm. It also gave a zone of inhibition at 10 µg/disc (Staphylococcus aureus [12]; strain Ziegler) of 26 mm, a zone of inhibition at 10 µg/disc (Klebsiella pneumoniae [13]; strain Ad 17) of 22 mm and a zone of inhibition at 10 µg/disc (Klebsiella pneumoniae [13]; strain Ad 18) of 23 mm. For the same compound, the zone of inhibition at 10 µg/disc (Klebsiella pneumoniae [13]; strain Georgetown 3020) was 13 mm, the zone of inhibition at 10 µg/disc (Klebsiella pneumoniae [13]; strain Georgetown 3694) was 14 mm and the zone of inhibition at 10 µg/disc (Bacillus subtilis [14]) was 31 mm.
